The values below come from ChEMBL document CHEMBL1127704 (J Med Chem, 1994).

SMILES strings stand for the structures.

Assay [1] deals with T1, Bifunctional dihydrofolate reductase-thymidylate synthase (Toxoplasma gondii, UniProt Q07422).
T1 sequence (Q07422 whole entry): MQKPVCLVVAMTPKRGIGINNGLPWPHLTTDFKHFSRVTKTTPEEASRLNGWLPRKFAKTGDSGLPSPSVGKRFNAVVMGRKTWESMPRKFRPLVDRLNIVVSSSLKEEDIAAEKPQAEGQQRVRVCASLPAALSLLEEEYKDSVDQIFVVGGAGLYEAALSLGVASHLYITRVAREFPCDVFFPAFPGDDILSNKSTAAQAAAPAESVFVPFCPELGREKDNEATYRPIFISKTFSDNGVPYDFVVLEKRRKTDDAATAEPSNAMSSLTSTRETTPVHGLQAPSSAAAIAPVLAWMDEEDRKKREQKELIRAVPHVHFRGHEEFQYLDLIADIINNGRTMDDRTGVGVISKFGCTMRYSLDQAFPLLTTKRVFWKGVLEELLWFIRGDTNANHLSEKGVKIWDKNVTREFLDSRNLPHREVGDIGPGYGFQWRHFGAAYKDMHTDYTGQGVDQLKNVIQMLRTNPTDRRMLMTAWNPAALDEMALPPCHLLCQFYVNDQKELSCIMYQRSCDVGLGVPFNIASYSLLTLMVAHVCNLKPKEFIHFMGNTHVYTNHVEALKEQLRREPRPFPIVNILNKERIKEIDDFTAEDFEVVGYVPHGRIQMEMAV
Description: Inhibition of Dihydrofolate reductase of Toxoplasma gondii

Assay [2] deals with T2, Dihydrofolate reductase (Rattus norvegicus, UniProt Q920D2).
T2 sequence (Q920D2 whole entry): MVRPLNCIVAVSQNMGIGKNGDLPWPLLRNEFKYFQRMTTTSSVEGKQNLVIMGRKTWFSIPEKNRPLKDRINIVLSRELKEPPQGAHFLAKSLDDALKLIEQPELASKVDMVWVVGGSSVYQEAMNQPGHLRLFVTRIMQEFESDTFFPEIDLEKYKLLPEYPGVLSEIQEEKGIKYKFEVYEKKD
Description: Inhibition of Dihydrofolate reductase (DHFR) of in rat liver

Assay [3] has as its target T3, Dihydrofolate reductase (Pneumocystis carinii, UniProt P16184).
T3 sequence (P16184 whole entry): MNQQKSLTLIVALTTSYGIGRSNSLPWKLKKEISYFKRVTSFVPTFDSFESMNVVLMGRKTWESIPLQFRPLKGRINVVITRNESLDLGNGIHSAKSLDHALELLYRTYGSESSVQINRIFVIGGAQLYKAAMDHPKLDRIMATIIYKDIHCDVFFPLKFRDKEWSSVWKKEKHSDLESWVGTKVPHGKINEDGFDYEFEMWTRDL
Description: Inhibition of Dihydrofolate reductase of Pneumocystis carinii

For the compound `COc1cc(CNc2ccc3nc(N)nc(N)c3c2Cl)cc(OC)c1OC`, the figures for the IC50 in assay [1], in assay [2] and in assay [3] were 7 nM, 6 nM and 33 nM, respectively.
Taken in the same sequence, the figures for `COc1ccc(OC)c(CNc2ccc3nc(N)nc(N)c3c2Cl)c1` were 17 nM, 28 nM and 53 nM.
In the case of `COc1cc(CN(C)c2ccc3nc(N)nc(N)c3c2Cl)cc(OC)c1OC`, the IC50 (commonly the midpoint of a concentration-inhibition curve) amounted to 16 nM in assay [1], 38 nM in assay [2] and 170 nM in assay [3].
The matching figures for `COc1ccc(OC)c(CCCNc2ccc3nc(N)nc(N)c3c2Cl)c1`: 1000 nM, 1900 nM and 26000 nM.
On to `COc1cc(CCNc2ccc3nc(N)nc(N)c3c2Cl)cc(OC)c1OC`, for which the IC50 was determined as 2600 nM in assay [1], 5400 nM in assay [2] and 43000 nM in assay [3].
For `COc1cc(CCCNc2ccc3nc(N)nc(N)c3c2Cl)cc(OC)c1OC`, the IC50 was found to be 14000 nM in assay [1] and 95000 nM in assay [3].
For the compound `COc1ccc(OC)c(CCNc2ccc3nc(N)nc(N)c3c2Cl)c1`, the IC50 in assay [1] is 990 nM; in assay [3], 12000 nM.
Compound `COc1cc(N(C)Cc2ccc3nc(N)nc(N)c3c2Cl)cc(OC)c1OC` came in with an IC50 in assay [1] of 6.4 nM.
On to `COc1ccc(OC)c(NCc2ccc3nc(N)nc(N)c3c2Cl)c1`, for which the IC50 is 30 nM in assay [1], 44 nM in assay [2] and 51 nM in assay [3].
Regarding `COc1cc(NCc2ccc3nc(N)nc(N)c3c2Cl)cc(OC)c1OC`, the IC50 in assay [1] is 5.2 nM; in assay [2] it was 5.9 nM; in assay [3], 33 nM.
